Biological target: T1, WEE1 kinase (Homo sapiens, UniProt P30291)
T1 construct: purchased CarnaBiosciences, Inc. 05-177
Experiment: Inhibitory effect of compound on WEE1 kinase in vitro (ELISA)
Type: biochemical
Details: ATP concentration of Km
Experimental: The tested compounds were screened on WEE1 kinase with ATP concentration of Km by ELISA. Compounds were screened on WEE1 kinase to evaluate the kinase inhibitory activity of the tested compounds. In the detection process, the initial concentration of the tested compounds was all selected as 100 nM, and each compound was selected with 6 gradient dilution concentrations, the gradient dilution ratio was 4-fold, and two replicate wells were detected for each concentration, MK1775 was used as the standard control.
WEE1, purchased from CarnaBiosciences, Inc., Item No. 05-177; dimethyl sulfoxide, purchased from Sigma-Aldrich, Item No. D8418; ATP, purchased from Sigma-Aldrich, Item No. A7699; DTT solution, purchased from Sigma-Aldrich, Item No. 43816; protein tyrosine kinase (PTK) substrate (poly-Glu-Tyr), purchased from Sigma-Aldrich, Item No. P4476; P-Tyr (PY99), purchased from Santa Cruz, Item No. sc-7020; Anti-mouse IgG HRP-linked Antibody, purchased from Santa Cruz, Item No. 7076S; TMB liquid Substrate System, purchased from Sigma-Aldrich, Item No. T0440; Costar Stripwell Microplate No Lid 1×8 Flat Bottom, Certified High Binding, purchased from Sigma-Aldrich, Item No. 42592; 96-well compound plate, purchased from Thermo Scientific, Item No. 267245.
• 1. Coating substrate: 1) An appropriate volume of substrate storage solution protein tyrosine kinase (PTK) substrate (poly-Glu-Tyr) was taken, diluted 10 times with PBS, and the concentration was diluted from […]. The mixture was added to a high adsorption 96-well plate at 125 μL per well. The plate was placed in an incubator at 37° C. for overnight coating. 2) After 24 hours, the 96-well plate was taken out, the liquid in the 96-well plate was poured out, cleaned with washing buffer for 3 times, and the incubator at 37° C. was inverted and dried for 2 hours. • 2. Compound preparation and transfer: 1) compound dilution: 10 mM of the test compound storage solution was taken, the compound in 96-well compound plate was diluted with DMSO in multiple steps to obtain the initial concentration of 100× compound as the first concentration, and then DMSO was used for 4-fold gradient dilution, for a total of 6 concentrations; after that, 2 μL of the gradient dilution solution was added to 48 μL of 1× reaction buffer respectively to prepare 4× compound; 2) 4× compounds were transferred: 10 μL of 4× compounds from the 96-well compound plate configured in the previous step were transferred into the dried high adsorption 96-well plate; 10 μL of the following liquids were added to the compound-free control wells and ATP-control wells: 2 μL of DMSO was added to 48 μL of 1× reaction buffer. • 3. Enzyme reaction stage: 1) WEE1 kinase and ATP were prepared into 2× enzyme solution and 4×ATP solution respectively with 1× reaction buffer. In this screening, the final concentration of WEE1 kinase was: 0.15 ng/μL and the final concentration of ATP was: […]; 2) 20 μL of enzyme solution of 2 was added to the high adsorption 96-well plate; 3) 10 μL of 4×ATP solution was added to the high adsorption 96-well plate and 10 μL of 1× reaction buffer was added to the ATP-control group; 4) the plate was placed in HERAEUS Multifuge X1R centrifuge at 2000 rpm for 20 s and then placed at room temperature and reacted for 60 min. • 4. Reaction termination stage: 1) the reaction mixture in the plate was poured out, 200 μL of washing buffer was added to each well, and washed for 5 times; the primary antibody P-Tyr (PY99) (dilution ratio 1:2000) was added, 100 μL per well, at room temperature for 30 min. 2) The primary antibody in the plate was poured out, 200 μL of washing buffer was added to each well, and washed for 5 times; the second antibody Anti-mouse IgG HRP-linked Antibody (dilution ratio 1:2000) was added, 100 μL per well, at room temperature for 30 min.

T1 sequence (P30291 whole entry): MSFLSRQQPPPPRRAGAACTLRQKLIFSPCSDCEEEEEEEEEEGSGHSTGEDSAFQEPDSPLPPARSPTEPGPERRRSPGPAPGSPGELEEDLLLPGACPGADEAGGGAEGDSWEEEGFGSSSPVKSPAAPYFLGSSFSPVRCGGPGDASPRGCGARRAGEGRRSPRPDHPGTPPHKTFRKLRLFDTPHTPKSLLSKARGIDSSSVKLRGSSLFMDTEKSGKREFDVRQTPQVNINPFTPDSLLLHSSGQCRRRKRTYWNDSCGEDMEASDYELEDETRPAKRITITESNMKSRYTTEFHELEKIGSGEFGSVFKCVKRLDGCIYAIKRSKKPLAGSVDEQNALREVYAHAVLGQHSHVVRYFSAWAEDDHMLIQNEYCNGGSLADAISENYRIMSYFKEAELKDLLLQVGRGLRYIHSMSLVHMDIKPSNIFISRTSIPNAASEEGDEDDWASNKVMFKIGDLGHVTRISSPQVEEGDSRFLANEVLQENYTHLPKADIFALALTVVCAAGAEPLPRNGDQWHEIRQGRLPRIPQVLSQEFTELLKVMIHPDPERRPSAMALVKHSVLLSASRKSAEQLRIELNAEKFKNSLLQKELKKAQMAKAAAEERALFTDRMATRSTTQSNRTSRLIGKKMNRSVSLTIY

IC50: 1.52 nM
Structure (SMILES): C=CCn1c(=O)c2cnc(Nc3ccc(C4CCC(N5CCC5)CC4)cc3)nc2n1-c1cccc(C(C)(C)O)n1 (single isomer, unassigned) [Compound I-8-1]
